{"source": "patent US20100190184A1", "about": "“SCREENING METHOD UTILIZING NOVEL SUBSTRATE C-RET FOR GAMMA-SECRETASE” (Eisai R & D Management Co., Ltd., priority 2007, published 2010)", "molecular_target": "T1, γ-secretase (cleavage of rat c-Ret with HA tag in HEK293 cells) (Homo sapiens, UniProt P49768)", "T1 construct": "endogenous in cells; host or cells: 293/EBNA-1 cell strain (HEK293), transiently transfected with rat c-Ret-HA only", "assay": "Analysis of c-Ret processing in c-Ret-transfected 293/EBNA-1 cell strain (Western blotting with anti-HA antibody)", "format": "cell-based", "design": "dose or concentration left out as unconfirmed", "conditions": "Compound E added to culture broth, one day; 293/EBNA-1 (HEK293) cells transfected with rat c-Ret-HA; versus untreated sample", "procedure": "Whether or not c-Ret is a substrate for γ-secretase was evaluated using HEK293 cells expressing a gene encoding c-Ret with an HA tag added to its C-terminus, in the presence of a γ-secretase inhibitor. As the γ-secretase inhibitor, (2S)-2-{[(3,5-difluorophenyl)acetyl]amino}-N-[(3S)-1-methyl-2-oxo-5-phenyl-2,3-dihydro-1H-1,4-benzodiazepin-3-yl]propanamide (hereinafter, sometimes referred to as “Compound E”) (Alexis Biochemicals) was used. 293/EBNA-1 cell strain (Invitrogen) was cultured in 6-well dishes containing 10% FBS (Hyclone)/DMEM (Invitrogen) under 5% CO2 at 37° C., followed by transfection thereinto of the gene encoding rat c-Ret with an HA tag added to its C-terminus using Lipofectamine 2000 (Invitrogen). After one day culture under the same conditions, 50 mM Compound E (Alexis Biochemicals) was added to the culture broth. Cells were cultured for another day under the same conditions. Then, the transfected HEK293 cells were collected with PBS (Sigma) and sonicated with a sonicator (Taitec VP-5S) to disrupt cells. Then, the quantity of protein was determined with Protein Assay Kit (BioRad). Samples (2 μg each) were taken from proteins obtained from Compound E-added cells and Compound E-not added cells, respectively, and subjected to SDS-PAGE, followed by Western blotting with an anti-HA antibody (Roche) (final concentration: 0.2 μg/ml). […]"}
{"compound": "C[C@H](NC(=O)Cc1cc(F)cc(F)c1)C(=O)N[C@H]1N=C(c2ccccc2)c2ccccc2N(C)C1=O", "note": "[Compound E, (2S)-2-{[(3,5-difluorophenyl)acetyl]amino}-N-[(3S)-1-methyl-2-oxo-5-phenyl-2,3-dihydro-1H-1,4-benzodiazepin-3-yl]propanamide]", "values": [{"measurement": "effect on cleavage of c-Ret by γ-secretase (c-Ret C terminal fragment band, Western blot)", "value": "a band around 50 kDa (CTF) was accumulated specifically as a c-Ret undegraded product"}]}
